The supplement of paper PMC11451515

Test system: P12-Ichikawa
Assay: cell viability relative to DMSO control; higher = less cytotoxic
Conditions: 48 h
Outline: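 Viability values are per-plate percentages of DMSO wells, with background from cell-free wells. Library compounds in DMSO were pin-dosed, in an 11-point threefold series from 47 μM to 0.79 nM, onto NOMO1 or SEM (500 cells/well) or P12-Ichikawa (1000 cells/well) leukemia cells in 1536-well plates (5 μl). Those cells had been adapted for at least four passages in each medium, and CellTiter-Glo One luminescence was read after 48 h at 37°C.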

[1] = HPLM + 10% dialyzed FBS, 0.000781 µM
[2] = HPLM + 10% dialyzed FBS, 0.00234 µM
[3] = HPLM + 10% dialyzed FBS, 0.00702 µM
[4] = HPLM + 10% dialyzed FBS, 0.0211 µM
[5] = HPLM + 10% dialyzed FBS, 0.0632 µM
[6] = HPLM + 10% dialyzed FBS, 0.19 µM
[7] = HPLM + 10% dialyzed FBS, 0.569 µM
[8] = HPLM + 10% dialyzed FBS, 1.71 µM
[9] = HPLM + 10% dialyzed FBS, 5.12 µM
[10] = HPLM + 10% dialyzed FBS, 15.4 µM
[11] = HPLM + 10% dialyzed FBS, 46.1 µM
[12] = RPMI 5 mM glucose + 10% FBS, 0.000781 µM
[13] = RPMI 5 mM glucose + 10% FBS, 0.00234 µM
[14] = RPMI 5 mM glucose + 10% FBS, 0.00702 µM
[15] = RPMI 5 mM glucose + 10% FBS, 0.0211 µM
[16] = RPMI 5 mM glucose + 10% FBS, 0.0632 µM
[17] = RPMI 5 mM glucose + 10% FBS, 0.19 µM
[18] = RPMI 5 mM glucose + 10% FBS, 0.569 µM
[19] = RPMI 5 mM glucose + 10% FBS, 1.71 µM
[20] = RPMI 5 mM glucose + 10% FBS, 5.12 µM
[21] = RPMI 5 mM glucose + 10% FBS, 15.4 µM
[22] = RPMI 5 mM glucose + 10% FBS, 46.1 µM
[23] = RPMI 5 mM glucose + 10% dialyzed FBS, 0.000781 µM
[24] = RPMI 5 mM glucose + 10% dialyzed FBS, 0.00234 µM
[25] = RPMI 5 mM glucose + 10% dialyzed FBS, 0.00702 µM
[26] = RPMI 5 mM glucose + 10% dialyzed FBS, 0.0211 µM
[27] = RPMI 5 mM glucose + 10% dialyzed FBS, 0.0632 µM
[28] = RPMI 5 mM glucose + 10% dialyzed FBS, 0.19 µM
[29] = RPMI 5 mM glucose + 10% dialyzed FBS, 0.569 µM
[30] = RPMI 5 mM glucose + 10% dialyzed FBS, 1.71 µM
[31] = RPMI 5 mM glucose + 10% dialyzed FBS, 5.12 µM
[32] = RPMI 5 mM glucose + 10% dialyzed FBS, 15.4 µM
[33] = RPMI 5 mM glucose + 10% dialyzed FBS, 46.1 µM

Structure (SMILES) | cell viability [1] [%] | cell viability [2] [%] | cell viability [3] [%] | cell viability [4] [%] | cell viability [5] [%] | cell viability [6] [%] | cell viability [7] [%] | cell viability [8] [%] | cell viability [9] [%] | cell viability [10] [%] | cell viability [11] [%] | cell viability [12] [%] | cell viability [13] [%] | cell viability [14] [%] | cell viability [15] [%] | cell viability [16] [%] | cell viability [17] [%] | cell viability [18] [%] | cell viability [19] [%] | cell viability [20] [%] | cell viability [21] [%] | cell viability [22] [%] | cell viability [23] [%] | cell viability [24] [%] | cell viability [25] [%] | cell viability [26] [%] | cell viability [27] [%] | cell viability [28] [%] | cell viability [29] [%] | cell viability [30] [%] | cell viability [31] [%] | cell viability [32] [%] | cell viability [33] [%]
CN1CC(=O)N2[C@H](c3ccc4c(c3)OCO4)c3[nH]c4ccccc4c3C[C@@H]2C1=O | 100 | 99.2 | 100 | 97.9 | 104 | 96.6 | 101 | 91.6 | 89.9 | 89.6 | 78.8 | 92.4 | 96.8 | 90.4 | 92.6 | 95 | 103 | 90 | 94.1 | 82.7 | 96.9 | 79.6 | 89.8 | 92 | 92.6 | 89.6 | 90.9 | 92.1 | 85.1 | 87 | 83.6 | 81 | 78.5
CC1=CC(=CC(=C1C\C2=N\CCN2)C)C(C)(C)C | 102 | 105 | 105 | 106 | 105 | 124 | 107 | 116 | 106 | 104 | 102 | 99.5 | 105 | 105 | 114 | 118 | 113 | 111 | 114 | 99.3 | 86.4 | 90.2 | 91 | 96.4 | 98.1 | 100 | 105 | 92.9 | 103 | 102 | 97.9 | 91.4 | 84.1
COc1cc(C(=O)N2CC[C@@H](O)[C@@H](N)C2)cc2nc(-c3cc4ccccc4n3CC3CC3)n(C)c12 | 117 | 116 | 123 | 121 | 121 | 44.3 | 31 | 27.5 | 29 | 23.8 | 18.6 | 119 | 127 | 123 | 122 | 137 | 117 | 111 | 33.4 | 25.9 | 21.5 | 11.2 |  |  |  |  |  |  |  |  |  |  | 
C[C@@H]1CCO[C@H]2CN\3/C=C(/C(=O)NCC4=C(F)C=C(F)C=C4)C(=O)\C(=C3C(=O)N12)O | 108 | 109 | 103 | 109 | 106 | 105 | 103 | 96.5 | 103 | 104 | 93.5 | 99.3 | 99.5 | 106 | 105 | 101 | 104 | 111 | 96.3 | 93.9 | 91.9 | 74 | 105 | 97.1 | 103 | 97.9 | 101 | 95.6 | 98.7 | 93.6 | 97.7 | 86.5 | 82.1
COc1ccc2c(c1)CN(C)CC2c1ccc(Cl)c(Cl)c1 (stereo not drawn) | 128 | 121 | 125 | 125 | 134 | 133 | 125 | 123 | 133 | 131 | 116 |  |  |  |  |  |  |  |  |  |  |  |  |  |  |  |  |  |  |  |  |  | 
Nc1ncnc2c1ncn2[C@@H]1O[C@H](CO)C[C@H]1O | 92.5 | 96.4 | 92.8 | 93.1 | 98.8 | 94.1 | 93.1 | 88.8 | 92.2 | 89.3 | 89 | 87.9 | 104 | 94 | 94.4 | 87.7 | 96 | 93 | 93.5 | 85.3 | 86.8 | 87.6 | 83.8 | 90.1 | 97.7 | 90.9 | 87.4 | 91.2 | 94.5 | 87.6 | 86.1 | 89.6 | 92.3
CN1CCCN(CC1)C2=CC=C3C(=O)\C(=C/4SC5=C(C=CC=C5)N4C3=N2)C(=O)NCC6=CN=C(C)C=N6 | 114 | 108 | 119 | 108 | 110 | 113 | 108 | 103 | 92.3 | 92.4 | 84.6 | 113 | 124 | 122 | 109 | 117 | 108 | 95.9 | 101 | 83.3 | 81.8 | 54.1 | 103 | 114 | 117 | 108 | 107 | 104 | 94.5 | 92.1 | 85.8 | 82.2 | 59.6
NC[C@H]1O[C@H](O[C@@H]2[C@H](O)[C@@H](O[C@H]3O[C@H](CO)[C@@H](O)[C@H](N)[C@H]3O)[C@H](N)C[C@@H]2N)[C@H](O)[C@@H](O)[C@@H]1O | 126 | 124 | 124 | 107 | 120 | 121 | 117 | 121 | 112 | 104 | 107 |  |  |  |  |  |  |  |  |  |  |  |  |  |  |  |  |  |  |  |  |  | 
C=C[C@H]1CN2CCC1C[C@@H]2C(O)c1ccnc2ccc(OC)cc12 (stereo partly drawn) | 112 | 131 | 117 | 119 | 127 | 122 | 123 | 133 | 123 | 122 | 103 |  |  |  |  |  |  |  |  |  |  |  | 125 | 121 | 120 | 128 | 145 | 128 | 136 | 133 | 123 | 135 | 124
CCCCOCCOc1nc(-c2ccc(C(=O)O)c(F)c2)sc1C | 119 | 116 | 112 | 116 | 119 | 112 | 115 | 112 | 107 | 94.5 | 110 | 124 | 117 | 118 | 120 | 120 | 110 | 108 | 100 | 99.7 | 86.5 | 97.6 | 123 | 127 | 124 | 121 | 116 | 114 | 118 | 105 | 111 | 85 | 113
C[C@]12CC[C@H]3[C@@H](CCC4=CC(=O)CC[C@@H]43)[C@@H]1CC[C@@H]2OC(=O)CCc1ccccc1 | 116 | 115 | 117 | 115 | 113 | 121 | 120 | 120 | 121 | 119 | 117 |  |  |  |  |  |  |  |  |  |  |  | 104 | 113 | 112 | 106 | 115 | 119 | 113 | 123 | 112 | 114 | 104
CCOC(=O)C(C)OC1=CC=CC2=C1\C=C/N(CC(=O)NC3=CC=C4OCCOC4=C3)C2=O (stereo not drawn) | 89.3 | 97.6 | 97.9 | 53.9 | 101 | 106 | 95.5 | 97.5 | 90.5 | 101 | 108 | 89.6 | 97.6 | 97.9 | 91.7 | 98.6 | 103 | 103 | 91.2 | 87.2 | 111 | 108 | 88.6 | 88.2 | 91.5 | 88.5 | 85.7 | 98.2 | 92.2 | 89.8 | 90.4 | 92.5 | 101
CCOC(=O)\C1=C\[C@]2(CC)CCCN3CCC4=C([C@H]23)[N]1C5=C4C=CC=C5 | 98.7 | 106 | 107 | 104 | 111 | 105 | 110 | 102 | 115 | 108 | 101 | 99.6 | 118 | 109 | 110 | 123 | 111 | 109 | 116 | 111 | 114 | 79.6 | 89.5 | 106 | 109 | 104 | 107 | 108 | 113 | 105 | 105 | 109 | 65.7
Oc1nc(-c2ccc(C(F)(F)F)cc2)nc2c1CSCC2 | 102 | 109 | 96.1 | 102 | 109 | 108 | 106 | 98.1 | 100 | 91.5 | 94 | 101 | 102 | 100 | 84.2 | 107 | 99.5 | 108 | 99 | 87.7 | 96.8 | 85.4 | 95.1 | 90.9 | 95.5 | 86.3 | 90.7 | 94.7 | 94.4 | 99 | 87.6 | 87.8 | 79.3
COc1c(C)c2c(c(O)c1C/C=C(\C)CCC(=O)O)C(=O)OC2 | 108 | 107 | 111 | 109 | 113 | 109 | 103 | 99.1 | 90.5 | 50.2 | 38.2 | 108 | 110 | 106 | 104 | 112 | 104 | 104 | 85 | 60.9 | 36.7 | 23 | 103 | 97.8 | 95.3 | 100 | 104 | 97.6 | 103 | 82 | 64 | 39.7 | 28.7
